Each structure is given as a SMILES string. Active and inactive are the calls of the source. The rule behind the calls is not given here.

The target of assay [1] is Mitogen-activated protein kinase 1 (Homo sapiens) (UniProt P28482). The assay is described as follows: Inhibition of recombinant human N-terminal GST-tagged ERK2 (2 to 360 residues) expressed in Escherichia coli assessed as remaining activity at 1 uM using MBP as substrate incubated for 30 mins in presence of [gamma-33P]ATP by filter binding method relative to control.

Assay [2] addresses SRSF protein kinase 1 (Homo sapiens) (UniProt Q96SB4). The assay is described as follows: Inhibition of recombinant human N-terminal GST-tagged SRPK1 (2 to 654 residues) expressed in Escherichia coli assessed as remaining activity at 1 uM using RSRSRSRSRSRSRSR as substrate incubated for 30 mins in presence of [gamma-33P]ATP by filter binding method relative to control.
Assay [3] has as its target LKB1-STRAD-MO25 complex (Homo sapiens) (UniProt Q15831+Q7RTN6+Q9Y376). The assay is described as follows: Inhibition of recombinant human N-terminal His6-tagged LKB1 (1 to 433 residues)/MO25 (1 to 341 residues)/STRAD (1 to 431 residues) expressed in baculovirus infected Sf21 cells assessed as remaining activity at 1 uM using LSNLYHQGKFLQTFCGSPLYRRR as substrate incubated for 30 mins in presence of [gamma-33P]ATP by filter binding method relative to control.

For assay [4], the target named is Tau-tubulin kinase 1 (Homo sapiens) (UniProt Q5TCY1). The assay is described as follows: Inhibition of recombinant human N-terminal GST-tagged TTBK1 (1 to 1321 residues) expressed in Escherichia coli assessed as remaining activity at 1 uM using RRKDLHDDEEDEAMSITA as substrate incubated for 30 mins in presence of [gamma-33P]ATP by filter binding method relative to control.

Assay [5] concerns the target Phosphorylase b kinase gamma catalytic chain, skeletal muscle/heart isoform (Homo sapiens) (UniProt Q16816). The assay is described as follows: Inhibition of recombinant human N-terminal GST-tagged PHKgamma1 (2 to 297 residues) expressed in Escherichia coli assessed as remaining activity at 1 uM using phosphorylase b peptide as substrate incubated for 30 mins in presence of [gamma-33P]ATP by filter binding method relative to control.

Assay [6] concerns the target MAP kinase-activated protein kinase 5 (Homo sapiens) (UniProt Q8IW41). The assay is described as follows: Inhibition of recombinant human His6-tagged PRAK (1 to 471 residues) expressed in baculovirus infected Sf21 cells assessed as remaining activity at 1 uM using phosphorylase b peptide as substrate incubated for 30 mins in presence of [gamma-33P]ATP by filter binding method relative to control.

Assay [7] concerns the target Mitogen-activated protein kinase kinase kinase kinase 2 (Homo sapiens) (UniProt Q12851). The assay is described as follows: Inhibition of recombinant human N-terminal His6-tagged GCK (2 to 812 residues) expressed in baculovirus infected Sf21 cells assessed as remaining activity at 1 uM using MBP as substrate incubated for 30 mins in presence of [gamma-33P]ATP by filter binding method relative to control.

Assay [8] addresses Myosin light chain kinase, smooth muscle (Homo sapiens) (UniProt Q15746). The assay is described as follows: Inhibition of recombinant human N-terminal GST-tagged SmMLCK (475 to 838 residues) expressed in Escherichia coli assessed as remaining activity at 1 uM using KKRPQRATSNVFA as substrate incubated for 30 mins in presence of [gamma-33P]ATP by filter binding method relative to control.

Assay [9] has as its target Tyrosine-protein kinase Yes (Homo sapiens) (UniProt P07947). The assay is described as follows: Inhibition of recombinant human N-terminal His6-tagged YES1 (1 to 543 residues) expressed in baculovirus infected Sf21 cells assessed as remaining activity at 1 uM using Poly(Glu,Tyr) as substrate incubated for 30 mins in presence of [gamma-33P]ATP by filter binding method relative to control.

The target of assay [10] is Macrophage colony-stimulating factor 1 receptor (Homo sapiens) (UniProt P07333). The assay is described as follows: Inhibition of human CSF1R at 1 uM using polyEY as substrate in presence of 33P-ATP by ProQinase assay.
The target of assay [11] is Tyrosine-protein kinase JAK3 (Homo sapiens) (UniProt P52333). The assay is described as follows: Inhibition of human JAK3 at 1 uM using poly(Ala,Glu,Lys,Tyr) as substrate in presence of 33P-ATP by ProQinase assay.
Assay [12] deals with Serine/threonine-protein kinase PLK1 (Homo sapiens) (UniProt P53350). The assay is described as follows: Inhibition of human PLK1 at 1 uM using RBER-CHKtide as substrate in presence of 33P-ATP by ProQinase assay.
The target of assay [13] is Ribosomal protein S6 kinase alpha-5 (Homo sapiens) (UniProt O75582). The assay is described as follows: Inhibition of human RPS6KA5 at 1 uM using RBER-CHKtide as substrate in presence of 33P-ATP by ProQinase assay.
The target in assay [14] is Casein kinase I isoform gamma-3 (Homo sapiens) (UniProt Q9Y6M4). The assay is described as follows: Inhibition of human CK1gamma3 at 1 uM using casein as substrate in presence of 33P-ATP by ProQinase assay.
In assay [15] the target is Protein kinase C theta type (Homo sapiens) (UniProt Q04759). The assay is described as follows: Inhibition of human PKCtheta at 1 uM using 3xChocktide-PKC as substrate in presence of 33P-ATP by ProQinase assay.
The target of assay [16] is Serine/threonine-protein kinase Nek6 (Homo sapiens) (UniProt Q9HC98). The assay is described as follows: Inhibition of human NEK6 at 1 uM using RBER-GSK3 as substrate in presence of 33P-ATP by ProQinase assay.
For assay [17], the target named is Serine/threonine-protein kinase 4 (Homo sapiens) (UniProt Q13043). The assay is described as follows: Inhibition of human MST1 at 1 uM using RB-CTF as substrate in presence of 33P-ATP by ProQinase assay.
For assay [18], the target named is Serine/threonine-protein kinase Nek2 (Homo sapiens) (UniProt P51955). The assay is described as follows: Inhibition of human NEK2 at 1 uM using RB-CTF as substrate in presence of 33P-ATP by ProQinase assay.
The target of assay [19] is Death-associated protein kinase 3 (Homo sapiens) (UniProt O43293). The assay is described as follows: Inhibition of human DAPK3 at 1 uM using RBER-GSK3 as substrate in presence of 33P-ATP by ProQinase assay.
Assay [20] has as its target Serine/threonine-protein kinase MARK2 (Homo sapiens) (UniProt Q7KZI7). The assay is described as follows: Inhibition of human MARK2 at 1 uM using RBER-CHKtide as substrate in presence of 33P-ATP by ProQinase assay.
The target in assay [21] is Death-associated protein kinase 1 (Homo sapiens) (UniProt P53355). The assay is described as follows: Inhibition of human DAPK1 at 1 uM using RBER-GSK3 as substrate in presence of 33P-ATP by ProQinase assay.
The target in assay [22] is Phosphatidylinositol 4,5-bisphosphate 3-kinase catalytic subunit beta isoform (Homo sapiens, UniProt P42338). The assay is described as follows: Inhibition of PI3Kbeta (unknown origin) using PtdIns(4,5)P2 as substrate preincubated for 20 mins followed by substrate addition and measured after 80 mins by Kinase-Glo assay.
For assay [23], the target named is Phosphatidylinositol 4-kinase beta (Homo sapiens, UniProt Q9UBF8). The assay is described as follows: Inhibition of human PI4KB using PI as substrate by ADP-Glo assay. In general terms: In ADP-Glo the light output rises with the ADP produced.

Sequence of Tau-tubulin kinase 1 (Homo sapiens) (Q5TCY1 whole entry, the tested form may be a part): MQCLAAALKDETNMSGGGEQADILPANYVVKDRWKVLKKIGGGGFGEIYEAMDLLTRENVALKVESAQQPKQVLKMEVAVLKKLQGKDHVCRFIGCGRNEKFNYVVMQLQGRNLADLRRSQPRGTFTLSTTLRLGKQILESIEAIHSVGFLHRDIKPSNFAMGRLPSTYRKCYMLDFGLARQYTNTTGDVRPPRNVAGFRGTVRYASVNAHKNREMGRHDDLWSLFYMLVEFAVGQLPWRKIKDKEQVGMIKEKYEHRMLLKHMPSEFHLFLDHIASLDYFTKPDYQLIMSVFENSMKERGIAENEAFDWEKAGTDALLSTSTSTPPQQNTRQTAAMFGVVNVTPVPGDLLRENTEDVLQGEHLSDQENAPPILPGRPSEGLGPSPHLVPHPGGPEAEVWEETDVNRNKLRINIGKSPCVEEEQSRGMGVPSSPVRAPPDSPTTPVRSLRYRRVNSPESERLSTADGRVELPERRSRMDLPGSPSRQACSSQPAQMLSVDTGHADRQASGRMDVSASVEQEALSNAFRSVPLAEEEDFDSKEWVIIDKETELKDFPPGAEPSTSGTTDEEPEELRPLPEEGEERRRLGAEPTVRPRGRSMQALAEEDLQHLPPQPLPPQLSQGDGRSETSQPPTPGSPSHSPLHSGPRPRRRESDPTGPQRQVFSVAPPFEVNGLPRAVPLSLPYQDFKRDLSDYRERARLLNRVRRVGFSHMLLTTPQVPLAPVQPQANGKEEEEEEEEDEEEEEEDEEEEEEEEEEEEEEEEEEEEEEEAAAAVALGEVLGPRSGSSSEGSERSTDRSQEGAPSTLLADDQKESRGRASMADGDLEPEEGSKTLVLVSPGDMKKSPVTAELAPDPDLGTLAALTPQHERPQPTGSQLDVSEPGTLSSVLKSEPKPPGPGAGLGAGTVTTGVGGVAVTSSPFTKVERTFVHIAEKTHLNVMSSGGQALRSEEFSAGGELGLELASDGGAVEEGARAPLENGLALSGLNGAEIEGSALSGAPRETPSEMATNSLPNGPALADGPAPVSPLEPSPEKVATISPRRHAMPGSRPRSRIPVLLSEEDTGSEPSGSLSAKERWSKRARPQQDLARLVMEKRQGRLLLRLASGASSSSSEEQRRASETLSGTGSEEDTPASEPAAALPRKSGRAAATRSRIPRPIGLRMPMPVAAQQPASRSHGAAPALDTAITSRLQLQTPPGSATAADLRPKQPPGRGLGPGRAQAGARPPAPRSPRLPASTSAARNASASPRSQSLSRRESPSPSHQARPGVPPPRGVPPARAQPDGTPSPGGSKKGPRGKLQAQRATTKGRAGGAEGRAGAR
Sequence of Macrophage colony-stimulating factor 1 receptor (Homo sapiens) (P07333 whole entry): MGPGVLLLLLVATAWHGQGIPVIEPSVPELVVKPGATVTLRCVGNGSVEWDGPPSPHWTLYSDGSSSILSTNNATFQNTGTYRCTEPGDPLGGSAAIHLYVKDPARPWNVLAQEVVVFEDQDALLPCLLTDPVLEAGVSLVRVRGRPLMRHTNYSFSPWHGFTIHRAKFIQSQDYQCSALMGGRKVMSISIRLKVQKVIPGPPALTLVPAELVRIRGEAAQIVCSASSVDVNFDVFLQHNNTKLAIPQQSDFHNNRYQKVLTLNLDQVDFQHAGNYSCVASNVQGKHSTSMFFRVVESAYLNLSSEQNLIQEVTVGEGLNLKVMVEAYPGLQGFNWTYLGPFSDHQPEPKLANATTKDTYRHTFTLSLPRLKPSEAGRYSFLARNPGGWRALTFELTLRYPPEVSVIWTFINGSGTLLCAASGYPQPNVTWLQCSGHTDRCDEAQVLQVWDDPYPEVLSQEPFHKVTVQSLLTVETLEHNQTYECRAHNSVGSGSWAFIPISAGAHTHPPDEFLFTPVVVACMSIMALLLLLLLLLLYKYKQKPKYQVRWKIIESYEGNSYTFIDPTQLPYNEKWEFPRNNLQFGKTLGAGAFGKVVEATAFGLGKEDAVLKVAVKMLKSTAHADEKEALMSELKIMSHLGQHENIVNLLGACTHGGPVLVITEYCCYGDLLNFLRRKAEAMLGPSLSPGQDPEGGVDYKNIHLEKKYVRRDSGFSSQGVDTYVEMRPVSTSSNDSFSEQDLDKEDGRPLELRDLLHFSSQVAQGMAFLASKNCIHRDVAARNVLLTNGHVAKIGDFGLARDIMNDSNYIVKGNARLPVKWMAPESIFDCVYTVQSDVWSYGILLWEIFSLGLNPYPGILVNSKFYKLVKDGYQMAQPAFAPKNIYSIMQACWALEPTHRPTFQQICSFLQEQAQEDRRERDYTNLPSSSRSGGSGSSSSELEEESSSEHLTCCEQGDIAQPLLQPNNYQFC
Sequence of Phosphorylase b kinase gamma catalytic chain, skeletal muscle/heart isoform (Homo sapiens) (Q16816 whole entry, looked up, the tested form may be a part, canonical isoform): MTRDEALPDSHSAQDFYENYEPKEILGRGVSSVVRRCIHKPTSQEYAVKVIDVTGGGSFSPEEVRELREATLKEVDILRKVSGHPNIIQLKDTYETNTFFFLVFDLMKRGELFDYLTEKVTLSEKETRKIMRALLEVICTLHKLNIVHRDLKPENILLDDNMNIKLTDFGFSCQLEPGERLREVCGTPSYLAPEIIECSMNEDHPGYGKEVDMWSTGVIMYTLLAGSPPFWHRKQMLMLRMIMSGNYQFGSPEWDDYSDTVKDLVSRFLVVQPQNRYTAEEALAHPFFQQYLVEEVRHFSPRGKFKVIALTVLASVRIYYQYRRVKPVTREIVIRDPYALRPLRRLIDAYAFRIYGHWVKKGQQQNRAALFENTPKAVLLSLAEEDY
Sequence of Death-associated protein kinase 1 (Homo sapiens) (P53355 whole entry, looked up, canonical isoform): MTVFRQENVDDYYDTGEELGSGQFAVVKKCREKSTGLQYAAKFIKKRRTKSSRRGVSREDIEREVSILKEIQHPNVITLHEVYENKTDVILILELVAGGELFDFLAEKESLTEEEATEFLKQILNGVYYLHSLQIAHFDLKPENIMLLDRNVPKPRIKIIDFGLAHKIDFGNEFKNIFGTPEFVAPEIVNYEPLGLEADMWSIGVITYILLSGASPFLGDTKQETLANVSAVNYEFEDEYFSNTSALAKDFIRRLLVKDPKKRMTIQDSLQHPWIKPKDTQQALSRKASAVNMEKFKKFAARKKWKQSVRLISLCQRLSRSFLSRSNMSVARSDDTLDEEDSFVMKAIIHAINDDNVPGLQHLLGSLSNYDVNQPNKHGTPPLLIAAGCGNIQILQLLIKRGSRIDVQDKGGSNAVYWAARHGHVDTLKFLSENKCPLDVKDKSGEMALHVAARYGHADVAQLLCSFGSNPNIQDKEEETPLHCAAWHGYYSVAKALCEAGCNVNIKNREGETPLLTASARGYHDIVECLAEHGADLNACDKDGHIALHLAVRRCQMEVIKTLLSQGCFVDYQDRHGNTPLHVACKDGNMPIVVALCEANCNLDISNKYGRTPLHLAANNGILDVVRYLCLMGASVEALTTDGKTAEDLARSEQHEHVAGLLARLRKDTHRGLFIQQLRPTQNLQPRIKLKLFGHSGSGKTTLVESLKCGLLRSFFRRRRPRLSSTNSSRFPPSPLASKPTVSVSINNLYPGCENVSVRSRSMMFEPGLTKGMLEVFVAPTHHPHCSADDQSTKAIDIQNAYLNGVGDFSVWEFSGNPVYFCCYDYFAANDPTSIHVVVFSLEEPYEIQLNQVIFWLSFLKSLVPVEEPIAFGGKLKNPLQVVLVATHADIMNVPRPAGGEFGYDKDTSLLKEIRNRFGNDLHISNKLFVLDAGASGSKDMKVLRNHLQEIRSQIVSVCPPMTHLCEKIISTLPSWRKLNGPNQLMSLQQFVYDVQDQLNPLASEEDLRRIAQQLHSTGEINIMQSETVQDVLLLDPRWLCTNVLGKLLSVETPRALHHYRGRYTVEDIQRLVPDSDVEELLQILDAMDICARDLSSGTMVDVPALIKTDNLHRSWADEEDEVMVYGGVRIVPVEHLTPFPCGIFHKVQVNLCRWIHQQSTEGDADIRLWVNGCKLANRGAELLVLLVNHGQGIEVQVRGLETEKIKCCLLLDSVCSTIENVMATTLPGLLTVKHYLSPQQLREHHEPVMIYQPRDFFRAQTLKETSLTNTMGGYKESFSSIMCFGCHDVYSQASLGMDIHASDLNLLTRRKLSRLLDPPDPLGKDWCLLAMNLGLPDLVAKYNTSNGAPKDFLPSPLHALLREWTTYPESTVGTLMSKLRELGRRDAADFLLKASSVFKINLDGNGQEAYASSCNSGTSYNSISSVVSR
Sequence of Serine/threonine-protein kinase 4 (Homo sapiens) (Q13043 whole entry): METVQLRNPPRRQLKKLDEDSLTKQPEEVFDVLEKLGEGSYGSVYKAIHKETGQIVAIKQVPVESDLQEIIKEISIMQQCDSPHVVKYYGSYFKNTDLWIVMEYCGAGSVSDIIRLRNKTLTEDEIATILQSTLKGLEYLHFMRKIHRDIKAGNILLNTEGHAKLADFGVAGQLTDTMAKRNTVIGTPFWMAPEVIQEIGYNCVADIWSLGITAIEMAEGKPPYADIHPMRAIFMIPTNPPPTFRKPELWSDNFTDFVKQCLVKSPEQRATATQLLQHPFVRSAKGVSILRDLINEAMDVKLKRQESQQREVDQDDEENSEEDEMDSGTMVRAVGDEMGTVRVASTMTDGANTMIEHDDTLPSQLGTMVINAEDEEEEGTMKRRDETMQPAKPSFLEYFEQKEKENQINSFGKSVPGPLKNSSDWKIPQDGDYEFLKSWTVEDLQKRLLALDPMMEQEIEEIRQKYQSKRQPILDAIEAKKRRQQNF
Sequence of MAP kinase-activated protein kinase 5 (Homo sapiens) (Q8IW41 whole entry, the tested form may be a part): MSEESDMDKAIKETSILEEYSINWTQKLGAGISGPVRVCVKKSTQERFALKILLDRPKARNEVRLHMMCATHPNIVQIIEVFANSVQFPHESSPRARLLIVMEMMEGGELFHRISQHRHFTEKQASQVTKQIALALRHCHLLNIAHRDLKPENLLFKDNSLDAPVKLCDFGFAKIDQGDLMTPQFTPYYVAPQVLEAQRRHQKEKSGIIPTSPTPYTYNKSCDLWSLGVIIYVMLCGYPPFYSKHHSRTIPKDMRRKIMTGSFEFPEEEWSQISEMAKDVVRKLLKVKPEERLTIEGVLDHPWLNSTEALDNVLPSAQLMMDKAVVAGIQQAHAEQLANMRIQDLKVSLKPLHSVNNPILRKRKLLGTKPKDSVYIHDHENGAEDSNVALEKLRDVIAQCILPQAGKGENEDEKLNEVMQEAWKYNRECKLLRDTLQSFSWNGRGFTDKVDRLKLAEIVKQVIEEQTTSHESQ

Turning to `CC(C)(O)CNc1ncc(-c2ccnc(Nc3ccnc(Cl)c3)n2)c(CC2CC2)n1`, the Activity in assay [1] came to 116%; in assay [2], 111%; in assay [3], 106%; in assay [4], 106%; in [5], 105%; in assay [6] it was 105%. Besides, the figures for the Activity in [7], in assay [8] and in assay [9] were 104%, 97% and 77%, respectively. In addition, the inhibition result in [10], in assay [11], in assay [12], in [13], in assay [14] and in [15] was “inactive” throughout. The inhibition result in assay [16], in assay [17], in assay [18], in [19], in assay [20] and in assay [21] was “inactive” throughout. Besides, the figures for the IC50 in assay [22] and in [23] were 21.4 µM and above 10 µM, respectively.

The term IC50 denotes the concentration needed to halve the response being measured.
